From patent publication US20240116910A1, “Heterocycles as WIP1 Inhibitors” (PMV Pharmaceuticals, Inc., priority 2022, published 2024) come the findings set out here.

pIC50: −log10 of the molar value.

A word on the pIC50: it is the IC50 on a negative log10 scale, so that one unit is a factor of ten.

The target of this assay is recombinant His-tag Wip1(2-420) protein (amino acids #2-420) (Homo sapiens (Human), UniProt O15297). As to the kind of experiment: Wip1(2-420) phosphatase enzyme FDP assay. Conditions: fluorescein diphosphate (FDP) substrate, RT 2 hours, fluorescence Ex485/Em535; read-out: WIP1 (Truncated 2-420) FDP Assay: IC50. In kind it is biochemical.
recombinant His-tag Wip1(2-420) protein (amino acids #2-420), sequence (O15297 2-420): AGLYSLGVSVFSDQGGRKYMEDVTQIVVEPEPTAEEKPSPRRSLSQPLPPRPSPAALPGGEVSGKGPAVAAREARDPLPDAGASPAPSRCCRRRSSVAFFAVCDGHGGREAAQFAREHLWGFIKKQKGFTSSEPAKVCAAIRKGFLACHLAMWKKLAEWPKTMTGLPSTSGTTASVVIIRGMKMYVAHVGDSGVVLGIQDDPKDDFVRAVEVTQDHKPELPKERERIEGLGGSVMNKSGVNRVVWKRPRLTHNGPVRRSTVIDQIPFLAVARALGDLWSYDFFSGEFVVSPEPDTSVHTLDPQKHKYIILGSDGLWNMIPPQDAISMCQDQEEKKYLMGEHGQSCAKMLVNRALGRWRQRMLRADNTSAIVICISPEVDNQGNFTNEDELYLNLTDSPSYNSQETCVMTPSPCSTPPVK
As to `Cc1ncc(Cl)cc1N[C@@H](C)c1ccc(C(=O)N[C@@H](CC2CCC3CC32)C(=O)N[C@H]2C[C@H](F)C2)s1` (stereo partly drawn) [Compound 116, (2S)-3-{bicyclo[3.1.0]hexan-2-yl}-2-({5-[(1S)-1-[(5-chloro-2-methylpyridin-3-yl)amino]ethyl]thiophen-2-yl}formamido)-N-[(1r,3r)-3-fluorocyclobutyl]propanamide], the negative-log IC50 (pIC50) was 8.00.
For `O=C(N[C@@H](CC1CCCC1)C(=O)NC1CC1)c1ccc([C@H]2CCc3c(Cl)cccc3N2)s1` [Compound 251, (2S)-2-({5-[(2R)-5-chloro-1,2,3,4-tetrahydroquinolin-2-yl]thiophen-2-yl}formamido)-3-cyclopentyl-N-cyclopropylpropanamide], the negative-log IC50 (pIC50) is 6.17.
For the molecule `Cc1ncc(Cl)cc1NC(Cc1cnn(C)c1)c1ccc(C(=O)N[C@@H](CC2CCCC2)C(=O)NC2CC2)s1` (stereo partly drawn) [Compound 188, (2S)-2-[(5-{1-[(5-chloro-2-methylpyridin-3-yl)amino]-2-(1-methyl-1H-pyrazol-4-yl)ethyl}thiophen-2-yl)formamido]-3-cyclopentyl-N-cyclopropylpropanamide], the negative-log IC50 (pIC50) is 7.96.
`Cc1ncc(Cl)cc1N[C@@H](C)c1ccc(C(=O)N[C@@H](CC2CCCC2)C(=O)NC(C)C)s1` [Compound 84, (2S)-2-({5-[(1S)-1-[(5-chloro-2-methylpyridin-3-yl)amino]ethyl]thiophen-2-yl}formamido)-3-cyclopentyl-N-(propan-2-yl)propanamide]: the negative logarithm of the IC50 (pIC50) is 8.10.
For the molecule `C[C@H](Nc1cc(Cl)nc2ccnn12)c1ccc(C(=O)N[C@@H](CC2CCCC2)C(=O)NC2CC2)s1` [Compound 260, (2S)-2-({5-[(1S)-1-({5-chloropyrazolo[1,5-a]pyrimidin-7-yl}amino)ethyl]thiophen-2-yl}formamido)-3-cyclopentyl-N-cyclopropylpropanamide], the pIC50 was 6.68.
As for `Cc1ncc(Cl)cc1N[C@@H](C)c1ccc(C(=O)N[C@@H](CC2CCCC2)C(=O)N[C@H]2C[C@H](C)C2)s1` [Compound 114, (2S)-2-({5-[(1S)-1-[(5-chloro-2-methylpyridin-3-yl)amino]ethyl]thiophen-2-yl}formamido)-3-cyclopentyl-N-[(1s,3r)-3-methylcyclobutyl]propanamide], the pIC50 is 8.22.
Consider `Cc1ncc(Cl)cc1N[C@@H](C)c1ccc(C(=O)N[C@@H](CC2CCCC2)C(=O)Nc2cn[nH]c2)s1` [Compound 227, (2S)-2-({5-[(1S)-1-[(5-chloro-2-methylpyridin-3-yl)amino]ethyl]thiophen-2-yl}formamido)-3-cyclopentyl-N-(1H-pyrazol-4-yl)propanamide], for which the negative-log IC50 (pIC50) was 8.10.
As to `COc1ccc(Cl)cc1N[C@@H](C)c1ccc(C(=O)N[C@@H](CC2CCCC2)C(=O)NC2CC2)s1` [Compound 254, (2S)-2-({5-[(1S)-1-[(5-chloro-2-methoxyphenyl)amino]ethyl]thiophen-2-yl}formamido)-3-cyclopentyl-N-cyclopropylpropanamide], the pIC50 was 7.96.
Consider `C[C@H](Nc1cc(Cl)cnc1-c1cccc(Cl)c1)c1ccc(C(=O)N[C@@H](CC2CCCC2)C(=O)NC2CC2)s1` [Compound 231, (2S)-2-({5-[(1S)-1-{[5-chloro-2-(3-chlorophenyl)pyridin-3-yl]amino}ethyl]thiophen-2-yl}formamido)-3-cyclopentyl-N-cyclopropylpropanamide], for which the negative-log IC50 (pIC50) is 8.10.
Consider `COCC(Nc1cc(Cl)cnc1C)c1ccc(C(=O)N[C@@H](CC2CCCC2)C(=O)NC2CC2)s1` (stereo partly drawn) [Compound 176, (2S)-2-[(5-{1-[(5-chloro-2-methylpyridin-3-yl)amino]-2-methoxyethyl}thiophen-2-yl)formamido]-3-cyclopentyl-N-cyclopropylpropanamide], for which the negative-log IC50 (pIC50) was 7.68.
With `C[C@@H](c1ccc(C(=O)N[C@@H](CC2CCCC2)C(=O)NC2CC2)s1)N(C)c1cncc(Cl)c1` [Compound 89, (2S)-2-({5-[(1S)-1-[(5-chloropyridin-3-yl)(methyl)amino]ethyl]thiophen-2-yl}formamido)-3-cyclopentyl-N-cyclopropylpropanamide], the negative-log IC50 (pIC50) was 6.99.
As to `CNC(=O)c1ncc(Cl)cc1N[C@@H](C)c1ccc(C(=O)N[C@@H](CC2CCCC2)C(=O)NC2CC2)s1` [Compound 196, 5-chloro-3-{[(1S)-1-(5-{[(1S)-2-cyclopentyl-1-(cyclopropylcarbamoyl)ethyl]carbamoyl}thiophen-2-yl)ethyl]amino}-N-methylpyridine-2-carboxamide], the pIC50 is 8.22.
Regarding `Cc1ncc(Cl)cc1N[C@@H](C)c1ccc(C(=O)N[C@@H](CC2CCCC2)C(=O)Nc2ccc3ncccc3c2)s1` [Compound 243, (2S)-2-({5-[(1S)-1-[(5-chloro-2-methylpyridin-3-yl)amino]ethyl]thiophen-2-yl}formamido)-3-cyclopentyl-N-(quinolin-6-yl)propanamide], the pIC50 was 8.40.
Regarding `COC(=O)c1ncc(Cl)cc1N[C@@H](C)c1ccc(C(=O)N[C@@H](CC2CCCC2)C(=O)NC2CC2)s1` [Compound 102, methyl 5-chloro-3-{[(1S)-1-(5-{[(1S)-2-cyclopentyl-1-(cyclopropylcarbamoyl)ethyl]carbamoyl}thiophen-2-yl)ethyl]amino}pyridine-2-carboxylate], the pIC50 was 8.00.
As to `CC(Nc1cc(Cl)cnc1C(F)(F)F)c1ccc(C(=O)N[C@@H](CC2CCCC2)C(=O)NC2CC2)s1` (stereo partly drawn) [Compound 202, (2S)-2-{[5-(1-{[5-chloro-2-(trifluoromethyl)pyridin-3-yl]amino}ethyl)thiophen-2-yl]formamido}-3-cyclopentyl-N-cyclopropylpropanamide], the pIC50 was 7.72.
Take `Cc1ncc(Cl)cc1N[C@@H](C)c1ccc(C(=O)N[C@@H](CC2CCCC2)C(=O)N[C@H]2C[C@H](C#N)C2)s1` [Compound 211, (2S)-2-({5-[(1S)-1-[(5-chloro-2-methylpyridin-3-yl)amino]ethyl]thiophen-2-yl}formamido)-3-cyclopentyl-N-[(1r,3r)-3-cyanocyclobutyl]propanamide]: the pIC50 is 8.00.
With `Cc1cc(NC(=O)[C@@H](CCC(C)(C)C)NC(=O)c2ccc([C@H](C)Nc3cc(Cl)cnc3C)s2)ccn1` [Compound 145, (2R)-2-({5-[(1S)-1-[(5-chloro-2-methylpyridin-3-yl)amino]ethyl]thiophen-2-yl}formamido)-5,5-dimethyl-N-(2-methylpyridin-4-yl)hexanamide] the figure was 5.85; with `Cc1cc(NC(=O)[C@H](CCC(C)(C)C)NC(=O)c2ccc([C@H](C)Nc3cc(Cl)cnc3C)s2)ccn1` [Compound 157, (2S)-2-({5-[(1S)-1-[(5-chloro-2-methylpyridin-3-yl)amino]ethyl]thiophen-2-yl}formamido)-5,5-dimethyl-N-(2-methylpyridin-4-yl)hexanamide], 8.05; with `Cc1ncc(Cl)cc1N[C@@H](C)c1ccc(C(=O)N[C@@H](CC2CCCC2)C(=O)Nc2ccc3ncc(C#N)cc3c2)s1` [Compound 148, (2S)-2-({5-[(1S)-1-[(5-chloro-2-methylpyridin-3-yl)amino]ethyl]thiophen-2-yl}formamido)-N-(3-cyanoquinolin-6-yl)-3-cyclopentylpropanamide], 8.22.
Regarding `C[C@H](c1ccc(C(=O)N[C@@H](CC2CCCC2)C(=O)NC23CC(C2)C3)s1)N(C)c1cncc(Cl)c1` [Compound 97, (2S)-N-{bicyclo[1.1.1]pentan-1-yl}-2-({5-[(1R)-1-[(5-chloropyridin-3-yl)(methyl)amino]ethyl]thiophen-2-yl}formamido)-3-cyclopentylpropanamide], the negative-log IC50 (pIC50) was 7.96.
With `Cc1ncc(Cl)cc1N[C@@H](C)c1ccc(C(=O)N[C@@H](CC2CCC3CC32)C(=O)NC23CC(C#N)(C2)C3)s1` (stereo partly drawn) [Compound 111, (2S)-3-{bicyclo[3.1.0]hexan-2-yl}-2-({5-[(1S)-1-[(5-chloro-2-methylpyridin-3-yl)amino]ethyl]thiophen-2-yl}formamido)-N-{3-cyanobicyclo[1.1.1]pentan-1-yl}propanamide], the negative-log IC50 (pIC50) was 7.92.
`Cc1ncc(Cl)cc1N[C@@H](c1ccc(C(=O)N[C@@H](CC2CCCC2)C(=O)NC23CC(C2)C3)s1)C(F)(F)F` [Compound 186, (2S)-N-{bicyclo[1.1.1]pentan-1-yl}-2-({5-[(1R)-1-[(5-chloro-2-methylpyridin-3-yl)amino]-2,2,2-trifluoroethyl]thiophen-2-yl}formamido)-3-cyclopentylpropanamide]: the negative-log IC50 (pIC50) is 6.71.
With `COc1ccccc1-c1ncc(Cl)cc1N[C@H](C)c1ccc(C(=O)N[C@@H](CC2CCCC2)C(=O)NC2CC2)s1` [Compound 241, (2S)-2-({5-[(1R)-1-{[5-chloro-2-(2-methoxyphenyl)pyridin-3-yl]amino}ethyl]thiophen-2-yl}formamido)-3-cyclopentyl-N-cyclopropylpropanamide] the figure was 6.48; with `COCc1ncc(Cl)cc1N[C@@H](C)c1ccc(C(=O)N[C@@H](CC2CCCC2)C(=O)NC2CC2)s1` [Compound 226, (2S)-2-({5-[(1S)-1-{[5-chloro-2-(methoxymethyl)pyridin-3-yl]amino}ethyl]thiophen-2-yl}formamido)-3-cyclopentyl-N-cyclopropylpropanamide], 7.96; with `Cc1cccc(NC(=O)[C@H](CC2CCCC2)NC(=O)c2ccc([C@H](C)Nc3cc(Cl)cnc3C)s2)n1` [Compound 86], 8.10.
With `Cc1ncc(Cl)cc1N[C@@H](C)c1ccc(C(=O)N[C@@H](CC2CCCC2)C(=O)Nc2cnn(CC(F)(F)F)c2)s1` [Compound 147, (2S)-2-({5-[(1S)-1-[(5-chloro-2-methylpyridin-3-yl)amino]ethyl]thiophen-2-yl}formamido)-3-cyclopentyl-N-[1-(2,2,2-trifluoroethyl)-1H-pyrazol-4-yl]propanamide] the figure was 8.22; with `Cc1ncc(Cl)cc1N[C@@H](C)c1ccc(C(=O)N[C@@H](CC2CCCC2)C(=O)Nc2cnn(C)c2)s1` [Compound 98, (2S)-2-({5-[(1S)-1-[(5-chloro-2-methylpyridin-3-yl)amino]ethyl]thiophen-2-yl}formamido)-3-cyclopentyl-N-(1-methyl-1H-pyrazol-4-yl)propanamide], 8.22.
